Test results taken from US8802114B2, “Pharmaceutical compositions of iron for oral administration” (priority 2011, dated 2014).

Columns and labels:
[1] = Sodium caprate (C10) solution compatibility of iron compounds, with centrifugation test for precipitation; format: physicochemical; conditions: in 55 mg/mL sodium caprate (C10)
Method: A test for precipitation was carried out. The solution formulations were centrifuged initially at 1000 rpm for 5 minutes. […] They were further centrifuged at 5000 rpm for 5 minutes.

[2] = Solution stability of sodium EDTA Fe+3 chelate with sodium caprate (visual observation); format: physicochemical; conditions: sodium caprate 55 mg/mL

| Compound | Sodium caprate solution compatibility (observation) [1] | Compatibility with sodium caprate formulation (pre-formulation) [2] |
| --- | --- | --- |
| Ferrous Gluconate [Ferrous Gluconate FCC/USP*] | C10 incompatibility | – |
| O=C(O)CN(CCN(CC(=O)O)CC(=O)O)CC(=O)O.[Fe+3].[Na+] [sodium EDTA iron chelate, ethylenediaminetetraacetic acid ferric sodium] | – | no gross incompatibility |
| NCC(=O)[O-].NCC(=O)[O-].[Fe+2] [Ferrous Bisglycinate (Ferrochel), Ferrous Bisglycinate] | precipitates in the presence of C10 | – |
